Laboratory results published in ChEMBL document CHEMBL3507680, “University of Dundee, Gates Library screen for HepG2 cell viability”.

test: Human HepG2 cell viability assay in 384 well format; assay type: toxicity, cell-based; parameters: dose 125 nL, time 70.5 hour; cytotoxicity at 70.5 h: concentration not given beside the values; settings: HepG2 cells, read-out: Inhibition

Compound	cytotoxicity at 70.5 h [%]
c1cnc2ccc(C[C@@H]3CC[C@H](CN4CCCOCC4)O3)cc2c1	-10.1
CCSc1ncc(CN2CCN(c3ncc(C)c(N)n3)CC2)cn1	-9.95
CN(CCc1ccccc1)c1cnn(Cc2ccccn2)c(=O)c1	-4.29
O=C(Nc1ccccc1CCO)c1cccc(CN2CC[C@H](O)C2)c1	-8.22
CN(Cc1csc(-c2cccs2)n1)C(=O)CCn1ccc(=O)[nH]c1=O	10.9
COc1ccc2c(=O)n(CC3CCCCN3C)ccc2c1OC (stereo unspecified)	-4.5
Cc1cccc(C(C(=O)N2CC(c3cccnc3)C2)N(C)C)c1 (stereo unspecified)	-0.966
CCN(C)C(=O)c1ccc(N(C)Cc2cc(-c3cccnc3)no2)nc1	0.809
CCO[C@H]1CN(C)C[C@@H]1NC(=O)c1cc(C)nc2c(C)c(C)ccc12	-6.51
CC(C)c1cc(C(=O)N2CCC3(CC2)c2ccccc2[C@@H](N)[C@@H]3O)cs1	-10.7
O=C(O)CSc1nnc(-c2ccn[nH]2)n1-c1ccccc1C(F)(F)F	-3.95
CCC1(C(=O)O)CCCN(C(=O)c2ccc(O)c(Cl)c2)C1 (stereo unspecified)	-4.39
C[C@@H]1CN(CC(=O)NCc2ccccn2)C[C@]1(C)O	-1.62
CC(C)c1nc(C(=O)N2C[C@H]3CC[C@@H]2CN(C2CCOCC2)C3)cs1	-7.88
CCCc1nc(N2CCCC3(CCNC3)C2)c2cnn(C)c2n1 (stereo unspecified)	-7.26
CN1[C@@H](c2ccccc2)[C@@H](C(=O)NCc2ccncc2)C[C@@]1(C)C(=O)O	-22.3
O=C(N1CCCC1)N1CCC(c2nccn2Cc2cscn2)CC1	-5.23
COc1ccccc1CCN1CCCC(CN(C)Cc2cc(C)n[nH]2)C1 (stereo unspecified)	-8.68
CCCn1cc(-c2cc(C(=O)N(C)C)c3ccc(C)cc3n2)cn1	-9.76
Cc1cc(CNC(=O)C2CCN(CC(N)=O)CC2)cc(C)n1	-6.5
Cc1cnn(-c2cncc(C(N)=O)c2)c1	-5.78
Cc1cccc(OCC2CCCN(C(=O)CCn3ccccc3=O)C2)c1 (stereo unspecified)	-11.2
CC(Cn1cccn1)C(=O)N1CCC(NS(C)(=O)=O)CC1 (stereo unspecified)	-6.23

Compound	cytotoxicity at 70.5 h [%]
Cc1cc(N[C@H](CO)COCc2ccccc2)n2nc(C)cc2n1	-0.86
Cc1ccc(OC2(C(=O)O)CCN(C/C=C/c3ccco3)CC2)c(C)n1	-7.06
CCC[C@@H]1CN(Cc2cc3c(cc2OC)OCCO3)C[C@H]1C(=O)O	-1.36
CSCC(=O)N[C@H]1CN(CC2CCOCC2)C[C@@H]1c1ccccc1	-4.95
N#Cc1ccccc1CN1CCCC(c2nccn2CC2CCC2)C1 (stereo unspecified)	-11
c1ccc(-c2ncc(CN3CCCCC3CCn3cccn3)cn2)nc1 (stereo unspecified)	-4.71
CCc1cnc(N)nc1N[C@@H](C)c1ncccc1C	-12.4
COCCN1CCCC2(CCN(Cc3noc(C4CCCC4)n3)C2)C1=O (stereo unspecified)	-4.8
c1cn(Cc2ccc(N3CCCN(C4CCCC4)CC3)nc2)cn1	38.7
COc1ccc(F)c(CN2CCCC3(CCN(C(=O)CSC)C3)C2)c1 (stereo unspecified)	8.81
Cc1cc(C(=O)N2CCCC(c3nccn3C)C2)cc(S(N)(=O)=O)c1C (stereo unspecified)	-5.68
COc1cccc([C@@H]2CN(C3CCCC3)C[C@H]2C(=O)O)c1	-2.63
Cc1cnc(NC(C)Cc2cccnc2)nc1N(C)C (stereo unspecified)	0.166
Cc1cc(C(N)=O)c(N2C[C@@H](C)[C@@](C)(O)C2)nc1C	-7.31
COc1ccc(CN2CC3(CCNCC3)CCC2=O)c(F)c1F	15.3
CC(C)(C)c1cc(CNC(=O)c2cc(COc3ccccc3)[nH]n2)[nH]n1	8.48
Cc1nc(N)nc(C)c1CC(=O)N1CCC2(CC1)OCCCC2O (stereo unspecified)	-13.9
CCC[C@@H]1CN(Cc2cnc(-c3cccs3)nc2)C[C@H]1C(=O)O	-0.697
O=C(c1ccc(C2CCCN2)s1)N1CCC2(CCCO2)CC1 (stereo unspecified)	-6.68
CCn1c(C2CCNCC2)nn(CCn2ccc(C)n2)c1=O	-21.2
CCC(Nc1nc(C)nc2c1cnn2C)c1ncnn1CC (stereo unspecified)	-1.28
CC(C)c1cc(C(=O)N2CCN(c3ccc(F)c(Cl)c3)CC2)n(C)n1	-4.92
COc1ccc(C2(C(=O)NCc3c(C)ncc4c3CCNC4)CC2)cc1	-5.87

Compound	cytotoxicity at 70.5 h [%]
O=C(O)C1(Cc2ccc(F)cc2F)CCCN(Cc2ccncc2)C1 (stereo unspecified)	-5.04
Cc1nccn1CCN(C)c1nc(-c2ccc(Cl)cc2)nc2c1CNC2	-3.99
Cn1c(CN2CCOCC2)nnc1C1CCCN(C(=O)CCC2CC2)C1 (stereo unspecified)	-6.43
CSc1nccc(N2CCC3(CCCN(CCc4ccccc4)C3)C2)n1 (stereo unspecified)	6.79
COCCn1cncc1-c1nc2c([nH]1)CC(C)(C)CNC2=O	-4.1
CN1CCC(N2CCN(C(C(=O)O)c3cccc4c3OCC4)CC2)CC1 (stereo unspecified)	2.04
O=C(NCCCSC1CCCCC1)C1NCCc2[nH]cnc21 (stereo unspecified)	-1.27
CC(=O)N1CCC(NCc2cccnc2N(C)Cc2ccccc2)CC1	-6.72
CNc1ncc(CN(C)c2ncnc3onc(C)c23)cn1	8.52
CCOc1ccc(Cl)cc1C(C(=O)O)N1CCCC1 (stereo unspecified)	-2.88
Cc1nccn1CCN(C)C(=O)C1CCCN(C2CCOCC2)C1 (stereo unspecified)	-4.07
O=C(O)[C@@H]1CN(Cc2c[nH]c(CC3CCCC3)n2)C[C@H]1c1ccncc1	-4.68
C=C(C)COc1cccc(CNCc2nc3ccccc3c(=O)[nH]2)c1	0.0265
O=C(c1cnccn1)N1C[C@@H]2CC[C@H](C1)N(S(=O)(=O)c1cccnc1)C2	7.54
O=C([C@H](O)c1ccccc1)N1CCN(c2cccc(Cl)c2)C(=O)C1	13.8
c1ccc(Cn2cccn2)c(CN2CCC3(CCCNC3)C2)c1 (stereo unspecified)	0.428
COc1ccc(OC2CCN(C(=O)CCc3n[nH]c(C)n3)CC2)cc1	22.6
CCN1CCN(C[C@@H]2CN(Cc3cnc(C(C)C)nc3)C[C@@H]2CO)CC1	13.2
CCOC(=O)c1coc(N2CCN(Cc3cccc(OC)c3)C(=O)C2)n1	4.55
CN(C(=O)c1ccccc1NCC(=O)O)C(C1CC1)C1CC1	-10.9
CN(CC(=O)N1CCC(Cc2cccc(C(N)=O)c2)C1)C1CCCC1 (stereo unspecified)	20.8
CCCc1nc(CN(CC)C(=O)c2ccc3c(c2)nnn3C)no1	-2.39
Cc1ccsc1-c1nccn1CCS(C)(=O)=O	16.2

Compound	cytotoxicity at 70.5 h [%]
c1cc(-c2cn[nH]c2)ccc1CN1CCNCC1	-3.83
Cc1ccc2nc(C3CCCN3Cc3cccc(CCN)c3)[nH]c2c1 (stereo unspecified)	-4.63
CC(c1nccs1)N(C)S(=O)(=O)NCc1ccccc1 (stereo unspecified)	25.4
CCc1nc2ccccc2n1C(CC)C(=O)N(C)CCc1noc(C)n1 (stereo unspecified)	-20.6
OCC1(CC2CCCCO2)CCN(c2cnc3ccccc3n2)CC1 (stereo unspecified)	-12.6
COC(=O)N1CCCCC1C(=O)N1CCC(c2ccncc2)CC1 (stereo unspecified)	-3.09
COCCC1(CO)CCCN(C(=O)c2cc(C#N)c(=O)[nH]c2C)C1 (stereo unspecified)	-0.759
O=C(NCc1ccc2c(c1)OCO2)c1ccccc1C1CCNC1 (stereo unspecified)	38
CN(Cc1cc2cc(F)ccc2[nH]1)C(=O)C1CC(=O)N(C(C)(C)C)C1 (stereo unspecified)	-1.21
CCC(C(=O)N(C)Cc1cc(-c2ccccc2)n[nH]1)n1cccn1 (stereo unspecified)	-13.1
c1ccc(CCCn2ccnc2-c2cn(C3CCNCC3)nn2)nc1	22.4
CCNc1ncc(C(=O)NC(c2ccccc2)c2ccco2)cn1 (stereo unspecified)	-9.5
Cc1ccc2cc(CNCCCO)c(=O)[nH]c2c1	-2.37
CC(=O)N1CCCCC1c1cc(C(=O)N2CCOCC2)[nH]n1 (stereo unspecified)	-7.33
Cc1ccccc1CNc1nc(O)cc(C2CC(=O)N(C)C2)n1 (stereo unspecified)	-7.17
COc1cccc(CNc2nc(O)cc(C3CC(=O)N(C)C3)n2)c1 (stereo unspecified)	-11.6
CNc1cc(CNC(=O)c2ccccc2)nc(-c2ccncc2)n1	11.4
CNc1cc(CNC(=O)c2ccccn2)nc(-c2ccncc2)n1	11.9
O=C(CC1CCCC1)N1CCCC(c2n[nH]c3nccnc23)C1 (stereo unspecified)	-0.397
CC(=O)N1CCC(c2nccnc2Oc2ccccc2)CC1	1.62
Cn1ccc(C(=O)N2CCC(Cc3cccc4cccnc34)C2)n1 (stereo unspecified)	-5.77
Cn1ccc(C(=O)N2CCC(Cc3cnc4[nH]ccc4c3)CC2)n1	-5.86
CNc1cccc(C2CCCN(C(=O)c3ccncc3)C2)n1 (stereo unspecified)	-2.97

Compound	cytotoxicity at 70.5 h [%]
Cn1ccnc1CN1CCCC(Cc2ccccn2)C1 (stereo unspecified)	34.7
O=C(c1cccs1)N1CCC(O)(CN2CCc3ccccc3C2)C1 (stereo unspecified)	-2.95
COc1ccc(CN(C)[C@@H]2CN(C(=O)c3cccs3)C[C@H]2O)cc1	-6.31
COc1cnc(C2(O)CCN(C(=O)c3cccnc3)CC2)c(OC)n1	-4.88
COc1cnc(C2(O)CCN(C(=O)c3ccncc3)CC2)c(OC)n1	-4.69
CC(=O)NCCc1cc(N2CCN(C(C)=O)CC2)nc(C2CC2)n1	-5.29
CNc1cncc(C2CCCN2Cc2ccccn2)n1 (stereo unspecified)	-6.51
CC(=O)N1CCCCC1c1nc2c(c(N3CCCCC3)n1)CN(C)CC2 (stereo unspecified)	-1.02
CC(C)c1nccn1-c1cccc(C2CCN(C)CC2)n1	27.3
Cc1cc(-c2cnn(CCNC(=O)C3CCCO3)c2C2CC2)on1 (stereo unspecified)	-9.36
O=C(Cn1cccnc1=O)NC(Cc1ccsc1)c1ccccn1 (stereo unspecified)	-11.2
CS(=O)(=O)c1snnc1C1CCN(Cc2ccncc2)CC1	-7.11
COc1cc2nc3n(c(=O)c2cc1OC)CCN(C(C)=O)CC3	-13.7
Cn1nc(C2CCCN(Cc3cccc(F)c3)C2)c2nccnc21 (stereo unspecified)	-4.33
OC[C@H]1CC[C@]2(CC1)CN(Cc1ccccn1)Cc1ccccc1O2	-13.2
Cc1cc(C)n(CC(=O)NC(Cc2ccsc2)c2ccccn2)c(=O)n1 (stereo unspecified)	13.9
Cc1ccc(=O)n(CC2(O)CCN(Cc3cc(C)c(O)c(C)c3)CC2)n1	22.7
Cc1nc(O)cc(C2CCN(Cc3cccc(F)c3F)C2)n1 (stereo unspecified)	-14.5
COc1ccc(F)c(CN2CCC(c3cc(O)nc(C)n3)C2)c1 (stereo unspecified)	32.2
